# Columns and labels:
# [1] = system: TMZ-resistant glioma cell lines; assay: cytotoxicity of noscapine in TMZ-resistant glioma cell lines; format: cell-based
# [2] = system: TMZ-resistant tumor cells; assay: migration and invasion of TMZ-resistant tumor cells; format: cell-based
# [3] = system: TMZ-resistant U251 glioma cells; assay: intracranial rodent xenograft tumor model, survival; format: in vivo, nude mice
# From the text: TMZ-resistant U251 glioma cells (R) were implanted intracranially into nude mice. After 7 days, treatment was initiated. […] Survival was used as an endpoint; * signifies statistical significance (p<0.05).
# After 7 days, treatment was initiated.
# [4] = in vivo, cited from earlier work
smiles,measurement,setting,value
"COc1ccc2c(c1OC)C(=O)O[C@@H]2[C@H]1c2c(cc3c(c2OC)OCO3)CCN1C [noscapine, (3S)-6,7-Dimethoxy-3-[(5R)-5,6,7,8-tetrahydro-4-methoxy-6-methyl-1,3-dioxolo (4,5-g)isoquinolin-5-yl]-1(3H)-isobenzofuranone]",cell death,[1]; 4 different TMZ-resistant glioma cell lines,caused cell death
same,cell cycle arrest,"[1]; TMZ-resistant glioma cell lines, prolonged arrest causes cell cytotoxicity",caused an arrest in the G2/M phase of cell cycle
same,invasion of TMZ-resistant tumor cells,[2],decreased
same,migration of TMZ-resistant tumor cells,[2],decreased
same,tumor growth,[3]; animal models,reduced tumor growth
same,survival of TMZ-resistant tumor bearing animals,"[3]; noscapine 225 mg/kg twice daily by gavage, treatment from day 7 after implantation",significantly enhanced survival
same,oral bioavailability,[4]; po,orally bioavailable
same,crossing of the blood-brain-barrier,[4],known to cross the blood-brain-barrier
